Measurements reported in US11122826B2, “Organic compounds” (GIVAUDAN S.A., priority 2013, dated 2021).

Assay: Taste evaluation by a panel of experienced tasters in Kikkoman low salt soy sauce
Details: 0.25 ppm dosed to Kikkoman low salt soy sauce (1 g salt/100 ml)
Protocol: Blanco Verdunde Kikkoman low Salt 1 g Salt/100 ml
The samples were evaluated by a panel of experienced tasters.

Compound	taste of the sample as agreed by the panel
CCCCCCCCCCCCCCCCCC(=O)NC(C)(C)C(=O)O [2-methyl-2-stearamidopropanoic acid, 2-methyl-2-stearamidopropanoic Acid]	salty upfront, no aftertaste expanding, bitter aftertaste not negative, more upfront salty, not as bitter and sweet, fermented
CCCCCCCCCCCCCCCC(=O)NC(C)(C)C(=O)O [2-methyl-2-palmitamidopropanoic acid, 2-methyl-2-palmitamidopropanoic Acid]	strong salty, more upfront, fermented, slightly bitter and sweet
CCCCCCCC/C=C\CCCCCCCC(=O)NC(C)(C)C(=O)O [2-methyl-2-oleamidopropanoic acid, 2-methyl-2-oleamidopropanoic Acid]	cleaner, more upfront body, salty, less fermented, more upfront, more salty bitter and sweet, fermented
